{"source": "the supplement of paper PMC10307832", "experiment_in_all_cases": "relative viability (nuclei count vs DMSO), 5 days (fraction); higher = more cells survive", "key": {"NCI-H1755": {"system": "NCI-H1755", "summary_of_the_method": "(§1)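 Relative viability is defined as nuclei in treated wells over nuclei in vehicle wells. Duplicate plates were run and medians reported. Lung cancer cell lines in 1536-well plates were dosed by pin tool one day after seeding, with one drug or with a fixed anchor-drug dose plus five library-drug doses (not always all listed) in √10 steps, and nuclei were counted after 5 days.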"}, "PC-3 [JPC-3]": {"system": "PC-3 [JPC-3]", "summary_of_the_method": "as §1"}, "HCC-15": {"system": "HCC-15", "summary_of_the_method": "as §1"}, "PC-14": {"system": "PC-14", "summary_of_the_method": "as §1"}, "NCI-H1437": {"system": "NCI-H1437", "summary_of_the_method": "as §1"}, "NCI-H1793": {"system": "NCI-H1793", "summary_of_the_method": "as §1"}, "UMC-11": {"system": "UMC-11", "summary_of_the_method": "as §1"}, "NCI-H3122": {"system": "NCI-H3122", "summary_of_the_method": "as §1"}, "IA-LM": {"system": "IA-LM", "summary_of_the_method": "as §1"}, "A-427": {"system": "A-427", "summary_of_the_method": "as §1"}, "NCI-H2405": {"system": "NCI-H2405", "summary_of_the_method": "as §1"}, "NCI-H441": {"system": "NCI-H441", "summary_of_the_method": "as §1"}, "H3255": {"system": "H3255", "summary_of_the_method": "as §1"}, "NCI-H1915": {"system": "NCI-H1915", "summary_of_the_method": "as §1"}, "HCC-366": {"system": "HCC-366", "summary_of_the_method": "as §1"}, "NCI-H1975": {"system": "NCI-H1975", "summary_of_the_method": "as §1"}, "HARA": {"system": "HARA", "summary_of_the_method": "as §1"}, "NCI-H2009": {"system": "NCI-H2009", "summary_of_the_method": "as §1"}, "SK-LU-1": {"system": "SK-LU-1", "summary_of_the_method": "as §1"}, "LXF-289": {"system": "LXF-289", "summary_of_the_method": "as §1"}, "NCI-H460": {"system": "NCI-H460", "summary_of_the_method": "as §1"}, "NCI-H2023": {"system": "NCI-H2023", "summary_of_the_method": "as §1"}, "NCI-H596": {"system": "NCI-H596", "summary_of_the_method": "as §1"}}}
{"smiles": "CCCCCCCCCCCC1=C(O)C(=O)C=C(O)C1=O", "note": "[Embelin] + CC1(C)CCC(c2ccc(Cl)cc2)=C(CN2CCN(c3ccc(C(=O)NS(=O)(=O)c4ccc(N[C@H](CCN5CCOCC5)CSc5ccccc5)c(S(=O)(=O)C(F)(F)F)c4)cc3)CC2)C1 [Navitoclax] (partner 0.5 µM)", "values": [{"measurement": "relative viability", "setting": "NCI-H1755; first compound 0.08 µM", "result": 0.993}, {"measurement": "relative viability", "setting": "NCI-H1755; first compound 0.8 µM", "result": 1.03}, {"measurement": "relative viability", "setting": "NCI-H1755; first compound 2.53 µM", "result": 1.07}, {"measurement": "relative viability", "setting": "NCI-H1755; first compound 8 µM", "result": 0.991}, {"measurement": "relative viability", "setting": "PC-3 [JPC-3]; first compound 0.08 µM", "result": 0.82}, {"measurement": "relative viability", "setting": "PC-3 [JPC-3]; first compound 0.8 µM", "result": 0.752}, {"measurement": "relative viability", "setting": "PC-3 [JPC-3]; first compound 2.53 µM", "result": 0.941}, {"measurement": "relative viability", "setting": "PC-3 [JPC-3]; first compound 8 µM", "result": 0.72}, {"measurement": "relative viability", "setting": "HCC-15; first compound 0.08 µM", "result": 0.659}, {"measurement": "relative viability", "setting": "HCC-15; first compound 0.8 µM", "result": 0.773}, {"measurement": "relative viability", "setting": "HCC-15; first compound 2.53 µM", "result": 0.718}, {"measurement": "relative viability", "setting": "HCC-15; first compound 8 µM", "result": 0.693}, {"measurement": "relative viability", "setting": "PC-14; first compound 0.08 µM", "result": 0.968}, {"measurement": "relative viability", "setting": "PC-14; first compound 0.8 µM", "result": 1.05}, {"measurement": "relative viability", "setting": "PC-14; first compound 2.53 µM", "result": 0.997}, {"measurement": "relative viability", "setting": "PC-14; first compound 8 µM", "result": 1.06}, {"measurement": "relative viability", "setting": "NCI-H1437; first compound 0.08 µM", "result": 1.07}, {"measurement": "relative viability", "setting": "NCI-H1437; first compound 0.8 µM", "result": 1.14}, {"measurement": "relative viability", "setting": "NCI-H1437; first compound 2.53 µM", "result": 1.11}, {"measurement": "relative viability", "setting": "NCI-H1437; first compound 8 µM", "result": 0.707}, {"measurement": "relative viability", "setting": "NCI-H1793; first compound 0.08 µM", "result": 0.461}, {"measurement": "relative viability", "setting": "NCI-H1793; first compound 0.8 µM", "result": 0.46}, {"measurement": "relative viability", "setting": "NCI-H1793; first compound 2.53 µM", "result": 0.498}, {"measurement": "relative viability", "setting": "NCI-H1793; first compound 8 µM", "result": 0.369}, {"measurement": "relative viability", "setting": "UMC-11; first compound 0.08 µM", "result": 0.328}, {"measurement": "relative viability", "setting": "UMC-11; first compound 0.8 µM", "result": 0.32}, {"measurement": "relative viability", "setting": "UMC-11; first compound 2.53 µM", "result": 0.319}, {"measurement": "relative viability", "setting": "UMC-11; first compound 8 µM", "result": 0.289}, {"measurement": "relative viability", "setting": "NCI-H3122; first compound 0.08 µM", "result": 1.05}, {"measurement": "relative viability", "setting": "NCI-H3122; first compound 0.8 µM", "result": 1.01}, {"measurement": "relative viability", "setting": "NCI-H3122; first compound 2.53 µM", "result": 0.985}, {"measurement": "relative viability", "setting": "NCI-H3122; first compound 8 µM", "result": 1.02}, {"measurement": "relative viability", "setting": "IA-LM; first compound 0.08 µM", "result": 1.03}, {"measurement": "relative viability", "setting": "IA-LM; first compound 0.8 µM", "result": 0.87}, {"measurement": "relative viability", "setting": "IA-LM; first compound 2.53 µM", "result": 0.92}, {"measurement": "relative viability", "setting": "IA-LM; first compound 8 µM", "result": 0.305}, {"measurement": "relative viability", "setting": "A-427; first compound 0.08 µM", "result": 0.975}, {"measurement": "relative viability", "setting": "A-427; first compound 0.8 µM", "result": 0.929}, {"measurement": "relative viability", "setting": "A-427; first compound 2.53 µM", "result": 0.939}, {"measurement": "relative viability", "setting": "A-427; first compound 8 µM", "result": 1}, {"measurement": "relative viability", "setting": "NCI-H2405; first compound 0.08 µM", "result": 0.986}, {"measurement": "relative viability", "setting": "NCI-H2405; first compound 0.8 µM", "result": 1.41}, {"measurement": "relative viability", "setting": "NCI-H2405; first compound 2.53 µM", "result": 0.875}, {"measurement": "relative viability", "setting": "NCI-H2405; first compound 8 µM", "result": 0.906}, {"measurement": "relative viability", "setting": "NCI-H441; first compound 0.08 µM", "result": 0.52}, {"measurement": "relative viability", "setting": "NCI-H441; first compound 2.53 µM", "result": 0.56}, {"measurement": "relative viability", "setting": "NCI-H441; first compound 8 µM", "result": 0.667}, {"measurement": "relative viability", "setting": "H3255; first compound 0.08 µM", "result": 0.516}, {"measurement": "relative viability", "setting": "H3255; first compound 0.8 µM", "result": 0.674}, {"measurement": "relative viability", "setting": "H3255; first compound 2.53 µM", "result": 0.551}, {"measurement": "relative viability", "setting": "H3255; first compound 8 µM", "result": 0.599}, {"measurement": "relative viability", "setting": "NCI-H1915; first compound 0.08 µM", "result": 0.822}, {"measurement": "relative viability", "setting": "NCI-H1915; first compound 0.8 µM", "result": 0.784}, {"measurement": "relative viability", "setting": "NCI-H1915; first compound 2.53 µM", "result": 0.793}, {"measurement": "relative viability", "setting": "NCI-H1915; first compound 8 µM", "result": 0.796}, {"measurement": "relative viability", "setting": "HCC-366; first compound 0.08 µM", "result": 0.953}, {"measurement": "relative viability", "setting": "HCC-366; first compound 0.8 µM", "result": 1.16}, {"measurement": "relative viability", "setting": "HCC-366; first compound 2.53 µM", "result": 1.13}, {"measurement": "relative viability", "setting": "HCC-366; first compound 8 µM", "result": 1.11}, {"measurement": "relative viability", "setting": "NCI-H1975; first compound 0.08 µM", "result": 1.13}, {"measurement": "relative viability", "setting": "NCI-H1975; first compound 0.8 µM", "result": 1.29}, {"measurement": "relative viability", "setting": "NCI-H1975; first compound 2.53 µM", "result": 1.13}, {"measurement": "relative viability", "setting": "NCI-H1975; first compound 8 µM", "result": 1.11}, {"measurement": "relative viability", "setting": "HARA; first compound 0.08 µM", "result": 1.12}, {"measurement": "relative viability", "setting": "HARA; first compound 0.8 µM", "result": 1.2}, {"measurement": "relative viability", "setting": "HARA; first compound 2.53 µM", "result": 1.12}, {"measurement": "relative viability", "setting": "HARA; first compound 8 µM", "result": 1.13}, {"measurement": "relative viability", "setting": "NCI-H2009; first compound 0.08 µM", "result": 1.23}, {"measurement": "relative viability", "setting": "NCI-H2009; first compound 0.8 µM", "result": 1.24}, {"measurement": "relative viability", "setting": "NCI-H2009; first compound 2.53 µM", "result": 1.23}, {"measurement": "relative viability", "setting": "NCI-H2009; first compound 8 µM", "result": 1.08}, {"measurement": "relative viability", "setting": "SK-LU-1; first compound 0.08 µM", "result": 0.808}, {"measurement": "relative viability", "setting": "SK-LU-1; first compound 0.8 µM", "result": 1.16}, {"measurement": "relative viability", "setting": "SK-LU-1; first compound 2.53 µM", "result": 0.786}, {"measurement": "relative viability", "setting": "SK-LU-1; first compound 8 µM", "result": 0.832}, {"measurement": "relative viability", "setting": "LXF-289; first compound 0.08 µM", "result": 1.01}, {"measurement": "relative viability", "setting": "LXF-289; first compound 0.8 µM", "result": 0.959}, {"measurement": "relative viability", "setting": "LXF-289; first compound 2.53 µM", "result": 1.03}, {"measurement": "relative viability", "setting": "LXF-289; first compound 8 µM", "result": 0.953}, {"measurement": "relative viability", "setting": "NCI-H460; first compound 0.08 µM", "result": 1.07}, {"measurement": "relative viability", "setting": "NCI-H460; first compound 0.8 µM", "result": 1.26}, {"measurement": "relative viability", "setting": "NCI-H460; first compound 2.53 µM", "result": 1.4}, {"measurement": "relative viability", "setting": "NCI-H460; first compound 8 µM", "result": 1.08}, {"measurement": "relative viability", "setting": "NCI-H2023; first compound 0.08 µM", "result": 1.05}, {"measurement": "relative viability", "setting": "NCI-H2023; first compound 0.8 µM", "result": 1.05}, {"measurement": "relative viability", "setting": "NCI-H2023; first compound 2.53 µM", "result": 1.02}, {"measurement": "relative viability", "setting": "NCI-H2023; first compound 8 µM", "result": 0.689}, {"measurement": "relative viability", "setting": "NCI-H596; first compound 0.08 µM", "result": 0.934}, {"measurement": "relative viability", "setting": "NCI-H596; first compound 0.8 µM", "result": 1.06}, {"measurement": "relative viability", "setting": "NCI-H596; first compound 2.53 µM", "result": 1.12}, {"measurement": "relative viability", "setting": "NCI-H596; first compound 8 µM", "result": 0.908}]}
